We go through three compounds from patent US9340590B2 (priority 2011, dated 2016).

Assay [1] addresses hNav1.5 (Homo sapiens, UniProt Q14524). Description: cell-based.
The target of assay [2] is hNav1.7 (Homo sapiens, UniProt Q15858). Description: cell-based. To be noted: Nav1.7 Use IC50.

Each structure is given as a SMILES string. Positions of bridges follow the written chain, without caps; N, C: chain ends. Non-standard residues stand in square brackets, D forms with d. Residues, ends and D or L forms follow the SMILES beside them. Abu = CC[C@H](N)C(=O)O

Broadly, the IC50 is the point on the concentration scale where inhibition reaches its midpoint. A higher IC50 goes with lower potency.

hNav1.5, sequence (Q14524 whole entry, looked up): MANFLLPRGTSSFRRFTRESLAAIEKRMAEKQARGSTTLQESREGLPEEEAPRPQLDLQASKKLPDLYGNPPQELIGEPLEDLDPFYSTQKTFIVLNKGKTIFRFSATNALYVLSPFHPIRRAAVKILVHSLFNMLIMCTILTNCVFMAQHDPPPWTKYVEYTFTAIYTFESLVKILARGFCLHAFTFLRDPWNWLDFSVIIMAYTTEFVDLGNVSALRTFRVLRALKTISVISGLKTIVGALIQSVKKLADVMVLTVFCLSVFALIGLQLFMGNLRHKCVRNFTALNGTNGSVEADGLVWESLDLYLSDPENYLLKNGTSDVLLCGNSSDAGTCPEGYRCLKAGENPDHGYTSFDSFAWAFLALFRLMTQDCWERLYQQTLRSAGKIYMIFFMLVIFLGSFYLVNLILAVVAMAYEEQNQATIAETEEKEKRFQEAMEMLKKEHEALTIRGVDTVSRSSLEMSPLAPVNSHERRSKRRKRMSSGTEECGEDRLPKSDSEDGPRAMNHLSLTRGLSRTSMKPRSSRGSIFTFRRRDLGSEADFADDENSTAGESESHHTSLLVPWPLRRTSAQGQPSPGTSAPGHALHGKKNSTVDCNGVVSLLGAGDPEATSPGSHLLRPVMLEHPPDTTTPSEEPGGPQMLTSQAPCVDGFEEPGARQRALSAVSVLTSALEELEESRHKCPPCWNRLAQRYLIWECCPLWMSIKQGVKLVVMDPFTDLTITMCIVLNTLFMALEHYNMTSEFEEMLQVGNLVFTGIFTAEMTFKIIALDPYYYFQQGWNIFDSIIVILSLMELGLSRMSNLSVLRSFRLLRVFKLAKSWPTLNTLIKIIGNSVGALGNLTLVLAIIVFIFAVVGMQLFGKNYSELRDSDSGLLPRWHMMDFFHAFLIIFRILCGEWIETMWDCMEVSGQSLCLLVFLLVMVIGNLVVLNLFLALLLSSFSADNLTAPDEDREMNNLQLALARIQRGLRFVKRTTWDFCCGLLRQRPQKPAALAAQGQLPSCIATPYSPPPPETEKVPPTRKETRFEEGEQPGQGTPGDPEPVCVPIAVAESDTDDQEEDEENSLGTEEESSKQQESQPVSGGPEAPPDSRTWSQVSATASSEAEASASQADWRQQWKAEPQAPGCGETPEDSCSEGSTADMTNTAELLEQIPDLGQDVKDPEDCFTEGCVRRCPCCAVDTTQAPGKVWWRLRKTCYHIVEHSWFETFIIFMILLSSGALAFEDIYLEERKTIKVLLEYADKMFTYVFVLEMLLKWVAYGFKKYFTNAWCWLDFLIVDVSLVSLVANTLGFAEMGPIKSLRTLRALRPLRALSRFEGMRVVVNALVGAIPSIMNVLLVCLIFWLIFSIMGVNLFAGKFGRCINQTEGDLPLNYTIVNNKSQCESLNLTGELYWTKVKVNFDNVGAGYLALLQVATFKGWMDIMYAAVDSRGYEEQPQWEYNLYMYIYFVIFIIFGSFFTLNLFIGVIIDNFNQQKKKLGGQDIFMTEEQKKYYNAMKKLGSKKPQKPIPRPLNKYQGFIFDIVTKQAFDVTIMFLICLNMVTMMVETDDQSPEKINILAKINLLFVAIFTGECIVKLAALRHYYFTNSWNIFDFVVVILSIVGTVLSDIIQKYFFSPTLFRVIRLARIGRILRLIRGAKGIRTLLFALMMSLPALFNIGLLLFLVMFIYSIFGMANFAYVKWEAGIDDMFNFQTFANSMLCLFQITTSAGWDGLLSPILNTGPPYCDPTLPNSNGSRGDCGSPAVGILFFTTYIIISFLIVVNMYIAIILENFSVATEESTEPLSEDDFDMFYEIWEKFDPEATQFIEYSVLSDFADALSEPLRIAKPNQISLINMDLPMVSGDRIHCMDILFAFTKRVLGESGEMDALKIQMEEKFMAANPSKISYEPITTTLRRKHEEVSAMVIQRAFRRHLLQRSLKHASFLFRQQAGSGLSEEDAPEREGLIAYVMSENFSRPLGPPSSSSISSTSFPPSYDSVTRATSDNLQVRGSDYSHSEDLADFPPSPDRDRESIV
hNav1.7, sequence (Q15858 whole entry, looked up): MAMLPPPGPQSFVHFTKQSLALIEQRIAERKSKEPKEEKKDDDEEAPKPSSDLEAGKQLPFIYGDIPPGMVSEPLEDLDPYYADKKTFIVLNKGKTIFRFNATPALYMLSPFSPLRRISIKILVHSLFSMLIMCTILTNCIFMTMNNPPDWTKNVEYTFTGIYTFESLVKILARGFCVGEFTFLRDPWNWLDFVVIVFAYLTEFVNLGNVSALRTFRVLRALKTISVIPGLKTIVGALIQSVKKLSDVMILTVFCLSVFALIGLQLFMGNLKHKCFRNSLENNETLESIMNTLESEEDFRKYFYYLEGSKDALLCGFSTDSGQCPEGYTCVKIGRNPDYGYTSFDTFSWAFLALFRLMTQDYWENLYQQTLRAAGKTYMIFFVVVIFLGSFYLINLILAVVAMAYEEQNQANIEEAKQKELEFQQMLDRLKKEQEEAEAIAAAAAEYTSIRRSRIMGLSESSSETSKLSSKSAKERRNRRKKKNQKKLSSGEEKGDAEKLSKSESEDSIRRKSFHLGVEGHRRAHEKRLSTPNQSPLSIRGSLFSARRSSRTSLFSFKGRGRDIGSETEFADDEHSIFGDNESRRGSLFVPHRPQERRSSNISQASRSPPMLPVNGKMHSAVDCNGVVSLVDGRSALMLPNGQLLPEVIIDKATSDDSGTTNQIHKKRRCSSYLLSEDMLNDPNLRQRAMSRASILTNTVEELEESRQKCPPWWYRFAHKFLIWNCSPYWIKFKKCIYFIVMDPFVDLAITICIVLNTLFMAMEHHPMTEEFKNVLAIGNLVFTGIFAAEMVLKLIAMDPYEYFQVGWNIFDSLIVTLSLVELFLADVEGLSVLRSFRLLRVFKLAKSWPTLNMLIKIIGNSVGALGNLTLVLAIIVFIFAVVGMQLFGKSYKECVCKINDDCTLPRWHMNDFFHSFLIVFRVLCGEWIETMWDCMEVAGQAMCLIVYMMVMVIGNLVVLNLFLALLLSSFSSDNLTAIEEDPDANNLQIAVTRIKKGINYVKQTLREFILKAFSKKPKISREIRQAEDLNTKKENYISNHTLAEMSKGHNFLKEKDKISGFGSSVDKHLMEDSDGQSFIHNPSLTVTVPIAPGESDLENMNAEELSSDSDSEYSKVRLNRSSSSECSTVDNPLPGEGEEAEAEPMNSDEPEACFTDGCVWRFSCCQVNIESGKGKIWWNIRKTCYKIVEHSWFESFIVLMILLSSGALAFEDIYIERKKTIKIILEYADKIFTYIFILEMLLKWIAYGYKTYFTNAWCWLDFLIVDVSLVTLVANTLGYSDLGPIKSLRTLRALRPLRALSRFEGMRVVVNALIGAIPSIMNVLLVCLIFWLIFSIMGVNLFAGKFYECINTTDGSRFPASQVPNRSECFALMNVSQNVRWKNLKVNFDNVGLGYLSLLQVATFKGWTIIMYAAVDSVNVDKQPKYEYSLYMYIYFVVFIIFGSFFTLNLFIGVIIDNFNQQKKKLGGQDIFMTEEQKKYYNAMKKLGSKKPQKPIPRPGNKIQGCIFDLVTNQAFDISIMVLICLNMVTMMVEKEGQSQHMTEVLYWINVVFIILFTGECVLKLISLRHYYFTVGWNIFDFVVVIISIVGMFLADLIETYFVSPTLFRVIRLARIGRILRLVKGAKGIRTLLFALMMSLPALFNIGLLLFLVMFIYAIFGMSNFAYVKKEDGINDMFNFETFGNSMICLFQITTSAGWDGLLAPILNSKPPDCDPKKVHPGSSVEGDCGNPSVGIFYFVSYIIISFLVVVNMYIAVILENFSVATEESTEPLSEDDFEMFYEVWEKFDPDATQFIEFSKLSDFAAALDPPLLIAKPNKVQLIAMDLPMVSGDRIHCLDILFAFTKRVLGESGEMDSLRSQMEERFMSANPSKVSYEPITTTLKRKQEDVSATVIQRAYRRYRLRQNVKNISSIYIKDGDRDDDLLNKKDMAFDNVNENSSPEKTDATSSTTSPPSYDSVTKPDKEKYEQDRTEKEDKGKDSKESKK

As for `CC[C@@H]1NC(=O)[C@H](CC(=O)O)NC(=O)[C@@H]2CCCN2C(=O)[C@H]([C@@H](C)CC)NC(=O)[C@@H]2CSSC[C@@H]3NC(=O)[C@H](C(C)C)NC(=O)[C@H](CC(C)C)NC(=O)[C@H](CC(N)=O)NC(=O)[C@@H]4CCCN4C(=O)[C@H](CCCNC(=N)N)NC(=O)[C@H](CSSC[C@H](NC(=O)[C@@H](N)CC(=O)O)C(=O)N[C@@H](CC(C)C)C(=O)NCC(=O)N[C@@H](C)C(=O)N[C@@H](CC(C)C)C(=O)N[C@@H](CCCNC(=N)N)C(=O)N[C@@H](CCCCN)C(=O)N2)NC(=O)[C@H](CSSC[C@@H](C(=O)N[C@@H](CCCCN)C(=O)N[C@@H](Cc2ccc(O)cc2)C(=O)N[C@H](C(=O)N[C@@H](Cc2ccccc2)C(N)=O)C(C)C)NC(=O)[C@H](Cc2c[nH]c4ccccc24)NC(=O)[C@H](CCCNC(=N)N)NC(=O)[C@H](Cc2c[nH]cn2)NC(=O)[C@H](CC(C)C)NC(=O)[C@H](CCCNC(=N)N)NC(=O)[C@H](CO)NC3=O)NC(=O)[C@H](CCCCN)NC(=O)[C@H](CC(=O)O)NC1=O` (H-DCLGALRKCIPD[Abu]DKCCRPNLVCSRLHRWCKYVF-NH2; disulfide 2-17, 9-23, 16-30), the IC50 in assay [1] is above 10000 nM; in assay [2], 8.7 nM.
As for `CSCC[C@@H]1NC(=O)[C@H](C(C)C)NC(=O)CNC(=O)[C@H](CC(C)C)NC(=O)[C@@H](NC(=O)[C@@H](N)CC(=O)O)CSSC[C@@H]2NC(=O)[C@@H]3CSSC[C@@H](C(=O)N[C@@H](CCCCN)C(=O)N[C@@H](Cc4ccc(O)cc4)C(=O)N[C@H](C(=O)N[C@@H](Cc4ccccc4)C(N)=O)C(C)C)NC(=O)[C@H](Cc4c[nH]c5ccccc45)NC(=O)[C@H](CCCCN)NC(=O)[C@H](Cc4c[nH]cn4)NC(=O)[C@H]([C@@H](C)O)NC(=O)[C@H](CCCNC(=N)N)NC(=O)[C@H](CO)NC(=O)[C@H](CSSC[C@H](NC(=O)[C@H](CCCCN)NC(=O)[C@H](CCCNC(=N)N)NC1=O)C(=O)N[C@@H](CC(=O)O)C(=O)N1CCC[C@H]1C(=O)N[C@@H](CC(=O)O)C(=O)N[C@@H](CC(N)=O)C(=O)N[C@@H](CC(=O)O)C(=O)N[C@@H](CCCCN)C(=O)N3)NC(=O)[C@H](C(C)C)NC(=O)[C@H](CC(C)C)NC(=O)[C@H](CC(N)=O)NC(=O)[C@@H]1CCCN1C(=O)[C@H](CCCNC(=N)N)NC2=O` [[Val5;Asp10]GpTx-1(1-34)] (H-DCLGVMRKCDPDNDKCCRPNLVCSRTHKWCKYVF-NH2; disulfide 2-17, 9-23, 16-30), the IC50 in assay [1] is above 10000 nM; in assay [2], 174 nM.
Turning to `CC[C@@H]1NC(=O)CNC(=O)[C@H](CC(C)C)NC(=O)[C@@H](NC(=O)[C@@H](N)CC(=O)O)CSSC[C@@H]2NC(=O)[C@@H]3CSSC[C@@H](C(=O)N[C@@H](CCCCN)C(=O)N[C@@H](Cc4ccc(O)cc4)C(=O)N[C@H](C(=O)N[C@@H](Cc4ccccc4)C(N)=O)C(C)C)NC(=O)[C@H](Cc4c[nH]c5ccccc45)NC(=O)[C@H](CCCCN)NC(=O)[C@H](Cc4c[nH]cn4)NC(=O)[C@H]([C@@H](C)O)NC(=O)[C@H](CCCNC(=N)N)NC(=O)[C@H](CO)NC(=O)[C@H](CSSC[C@H](NC(=O)[C@H](CCCCN)NC(=O)[C@H](CCCNC(=N)N)NC(=O)[C@H](CC(C)C)NC1=O)C(=O)N[C@@H]([C@@H](C)CC)C(=O)N1CCC[C@H]1C(=O)N[C@@H](CC(=O)O)C(=O)N[C@@H](CC(N)=O)C(=O)N[C@@H](CC(=O)O)C(=O)N[C@@H](CCCCN)C(=O)N3)NC(=O)[C@H](C(C)C)NC(=O)[C@H](CC(C)C)NC(=O)[C@H](CC(N)=O)NC(=O)[C@@H]1CCCN1C(=O)[C@H](CCCNC(=N)N)NC2=O` [[2-Abu5;Leu6]GpTx-1(1-34)], the IC50 in assay [1] was above 10000 nM; in assay [2] it was 22 nM.
